Series [1] has as its system E. coli UTI89. In words: Murine UPEC sepsis model. The class given is in vivo. The protocol:
Murine UPEC sepsis model and treatment with DU011. Groups of five 6-7 week old C57BL/6NCr female mice (purchased from Frederick National Laboratory for Cancer Research) were injected subcutaneously twice daily with 100 μL of 1% DMSO (vehicle control) or DU011 (1 mg/ml) starting 12 hrs prior to the intra peritoneal infection. Weights were recorded twice daily to monitor health of the animals and tolerance to the compound. Mice were challenged by intraperitoneal injection with 10^8 CFU of the indicated E. coli UTI89 in 100 μL of PBS. Briefly, cultures were prepared by diluting overnight cultures (18 hrs) 1:100 into 3 mL of LB supplemented with 1% DMSO final or 100 μM DU011 (1% DMSO final). Shaken cultures were grown at 37° C. for 6 hours to an OD600 of 1.2, and then cells were pelleted and resuspended in 1 mL of PBS. Absorbance was adjusted to OD600 of 0.8 in PBS, and the cultures were then diluted 1:10 in sterile PBS Animals were also given an intraperitoneal dose of 1% DMSO or DU011, in a site different than the administration of bacteria, to ensure sufficient systemic delivery of drug. Animal survival was assessed after 12 hours. Surviving mice were re-dosed according to the treatment groups and continued to be monitored. The experiment was concluded 48 hours post infection. The entire experiment was repeated with similar results.
Throughout each experiment, animals were monitored each 6 hours from the time of infection until conclusion for serious morbidity, including ruffled fur, decreased activity, slowed respirations, and ill appearance. Animals were provided gel packs for easily accessible additional hydration throughout the experiments. When a moribund state was suspected or anticipated by these criteria, animals were immediately euthanized to minimize potential pain and/or suffering. Of the total animals with an outcome categorized as death, the following numbers were euthanized for terminal morbidity prior to septic death (euthanized/total deaths): 3/10, no prior treatment; 3/5 prior chemical treatment of bacteria alone; 0/2 prior chemical treatment of mice alone. Euthanasia for all animals was through complete respiratory cessation using the inhaled anesthetic isoflurane followed by secondary assurance of death using bilateral thoracotomy. All animal experiments were conducted with prior approval from the Institutional Animal Care and Use Committee of Duke University.

For series [2], the system named is E. coli K1 strain UTI89. Nature of the series: Secondary assay 2: T7 phage-mediated lysis assay. The series is classed as cell-based, Escherichia coli. The procedure, abridged: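 E. coli K1 UTI89 shaken 1.5 h with compound (100–0.39 μM, quadruplicate, 1% DMSO), initial OD600 taken to flag growth effects without phage. T7 phage, whose entry is blocked by K capsule, then added; OD600 lysis read after 3 h at 37 °C, greater lysis indicating less capsule.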

In series [3] the test system is capsule genes of UPEC. Nature of the series: Capsule gene transcript level after probe treatment. The class given is cell-based, Escherichia coli. The conditions noted are these: UPEC treated with the probe.
Series [4] can be described thus: Hepatic microsome stability, human. The class given is in vitro ADME. The conditions noted are these: 37° C.
Series [5] concerns K1 antigen of UTI89. In words: K1 antigen whole-cell dot blot with anti-K1 serum. The class given is cell-based, Escherichia coli. The settings on record: 100 μM. As for the experimental part:
K1 antigen dot blot. K1 antigen was detected by dot blot assays of culture extracts probed with anti-K1 H46 serum. The assay was performed as previously described. The experiment was repeated twice with similar results, and a representative dot blot is shown.

Series [6] can be described thus: Plasma stability, mouse. The class given is in vitro ADME. The conditions noted are these: 1:1 Plasma:PBS, 37° C.
The target in series [7] is norepinephrine transporter (Homo sapiens, UniProt P23975). In words: LeadProfilingScreen, single target. The class given is binding. The conditions noted are these: Transporter, Norepinephrine (NET), hum, 10 μM. As for the experimental part:
Evaluation of off-target effects. Off target effects of lead molecules of interest were evaluated using the LeadProfilingScreen commercial assay at Eurofins Panlabs (Bothell, Wash.). Reference standards were run as an integral part of each assay to ensure the validity of the results obtained. Assay results are presented as the percent inhibition of specific binding or activity (for n=2 replicates) for the probe compound tested at a concentration of 10 μM. Details regarding the individual assays and methods are provided in Supplementary Information File 51.
DU003 & DU011 are biologically selective. DU003 and DU011 were submitted to the Eurofins Panlabs LeadProfilingScreen to assess off-target pharmacology 1421. […] In review of PubChem data, DU011 (CID23602075) is reported to have shown activity in only 21 of 467 (4.5%, as of Sep. 5, 2013) bioassays in which it was tested (assays unrelated to the current project). Per PubChem, DU003 (CID18109210) is reported to have shown activity in only 5 of 427 (1.2%, as of Sep. 5, 2013) bioassays in which it was tested (assays unrelated to the current project).

[8] abbreviates: pre-treatment of bacteria without pretreatment of the mice.

Entries after “also recorded” stand apart in the source; their conditions may differ. Where two headings read alike, the source gives them in different places.

Chain of norepinephrine transporter (P23975 whole entry): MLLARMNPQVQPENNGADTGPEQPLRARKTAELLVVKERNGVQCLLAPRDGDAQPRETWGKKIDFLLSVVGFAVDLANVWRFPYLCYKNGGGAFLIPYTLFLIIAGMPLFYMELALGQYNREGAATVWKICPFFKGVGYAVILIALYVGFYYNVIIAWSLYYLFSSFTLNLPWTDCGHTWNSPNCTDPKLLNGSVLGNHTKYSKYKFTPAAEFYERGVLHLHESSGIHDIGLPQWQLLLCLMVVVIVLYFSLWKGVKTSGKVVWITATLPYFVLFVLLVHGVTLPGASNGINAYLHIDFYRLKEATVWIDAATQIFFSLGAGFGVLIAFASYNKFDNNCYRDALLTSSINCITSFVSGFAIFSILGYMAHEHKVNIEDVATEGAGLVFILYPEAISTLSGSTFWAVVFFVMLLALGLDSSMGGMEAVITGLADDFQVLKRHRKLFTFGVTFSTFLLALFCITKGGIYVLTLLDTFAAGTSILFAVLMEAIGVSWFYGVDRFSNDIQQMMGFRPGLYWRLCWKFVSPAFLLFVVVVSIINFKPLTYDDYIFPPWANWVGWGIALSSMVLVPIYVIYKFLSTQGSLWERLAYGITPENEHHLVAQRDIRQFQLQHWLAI

Regarding `CCOc1ccc(-c2cc(NC(=O)c3c(F)cccc3F)c(C(=O)O)s2)cc1` [ML317, 3-(2,6-difluorobenzamido)-5-(4-ethoxyphenyl)thiophene-2-carboxylic acid], in series [1] (100 μL of 1 mg/ml subcutaneously twice daily, listed as DU011), the Tolerability in mice result is recorded as “without evident side effects; also recorded: no detectable adverse effects”. Further, the Body weight entry was “ongoing weight loss” in series [1] (setting [8]); “recovery of pre-infection weights” in series [1] (pretreatment of the bacteria and mice with DU011); “stabilization of weights” in series [1] (subcutaneous DU011 and untreated UTI89). The Survival is 50% in series [1] (setting [8]); 100% in series [1] (pretreatment of the bacteria and mice with DU011, 10^8 CFU UTI89 intraperitoneal, 48 hrs); 80% in series [1] (subcutaneous DU011 and untreated UTI89, 48 hrs). Besides, the IC50 in series [2] (Escherichia coli, commercial sample, SID 103147605, read-out: T7 phage assay IC50) was below 390 nM; in series [2] (Escherichia coli, first round of synthetic analogues, n = 2, read-out: T7 phage IC50), below 625 nM; in series [2] (Escherichia coli, purchased analogue series, n = 2, read-out: T7 phage IC50) it was below 390 nM; in series [2] (Escherichia coli, synthesized sample, SID 126497311, read-out: T7 phage assay IC50), below 625 nM; in series [2] (listed as CID 23602075, read-out: T7 phage IC50), below 390 nM. Further, the “Transcript for the capsule genes from each of the two major promoters” value in series [3] was “significantly reduced transcript”. The “Hepatic Microsome Stability, % remaining at 1 hr” value in series [4] turned out to be 89.6 % remaining. In addition, the “Whole-cell anti-K1 dot blot reactivity” value in series [5] is on record as “reduces K1 reactive material to levels comparable to those of genetic capsule mutants”. The “Plasma Stability, % remaining at 3 hr” value in series [6] worked out at 78.4 % remaining.
As to `CCOc1ccc(-c2cc(NC(=O)c3c(F)cccc3F)c(C(=O)O)s2)cc1` [KUC107784N-02], in series [7], the “% Inh.” value is given as 13%.

Broadly, the IC50 is the concentration that inhibits the measured activity by half.
